One may read the IC50 as the concentration that inhibits the measured activity by half. High values mean a need for much substance, low ones inhibition by little substance.

We go through 24 molecules from ChEMBL document CHEMBL3399925, “Synthesis and antimycobacterial properties of ring-substituted 6-hydroxynaphthalene-2-carboxanilides” (Bioorg Med Chem, 2015).

≈ marks a conversion by molar mass, not a printed value.

The nature of data set [1]: Lipophilicity, log K of the compound by HPLC method. It counts as physicochemical.
Data set [2] has as its system Mycobacterium tuberculosis. The data set is described as follows: microbe, parasite or virus in culture. The class given is functional. Particulars: H37Ra ATCC 25177, 168 h.
Description: Antimycobacterial activity against Mycobacterium tuberculosis H37Ra ATCC 25177 incubated for 7 days by alamar blue assay
Data set [3] has as its system Mycobacterium avium complex sp. As to the kind of experiment: Antimycobacterial activity against Mycobacterium avium complex isolate CIT19/06 incubated for 5 days by alamar blue assay. It counts as functional. To be noted: isolate CIT19/06, 120 h. (In general: The colour change of resazurin is a common sign of viable cells or microbes.)
Data set [4] has as its system Mycobacterium avium subsp. paratuberculosis. The data set is described as follows: Antimycobacterial activity against Mycobacterium avium subsp. paratuberculosis isolate CIT03 incubated for 11 days by alamar blue assay. It counts as functional. To be noted: isolate CIT03, 264 h.
For another data set, the system named is THP-1. The data set is described as follows: Cytotoxicity against human THP1 cells after 24 hrs by WST1 assay. It counts as cell-based. To be noted: THP-1, 24 h. (Tetrazolium assays rely on reduction of a dye to a coloured formazan, in cell work by metabolically active cells.)
The test system of data set [5] is Mycobacterium tuberculosis. As to the kind of experiment: Antimycobacterial activity against Mycobacterium tuberculosis H37Ra ATCC 25177 assessed as cell viability at 8 ug/ml incubated for 7 days by MTT assay. The class given is functional.

Consider `O=C(Nc1ccccc1C(F)(F)F)c1ccc2cc(O)ccc2c1`, for which, in data set [1], the “log K” value came to 0.5623. In addition, the MIC90 in data set [2] was found to be 91 µM (≈ 30.1 µg/mL); in data set [3], 181 µM (≈ 60 µg/mL); in data set [4] it was 377 µM (≈ 125 µg/mL).

With `O=C(Nc1ccc([N+](=O)[O-])cc1)c1ccc2cc(O)ccc2c1`, the “log K” value in data set [1] was found to be 0.5911. Further, the figures for the MIC90 in data set [2], in data set [3] and in data set [4] were 26 µM (≈ 8.02 µg/mL), 49 µM (≈ 15.1 µg/mL) and 97 µM (≈ 29.9 µg/mL), respectively.

Consider `O=C(Nc1ccccc1F)c1ccc2cc(O)ccc2c1`, for which, in data set [1], the “log K” value is listed as 0.4921. The MIC90 in data set [2] worked out at 107 µM (≈ 30.1 µg/mL); in data set [3], 107 µM (≈ 30.1 µg/mL); in data set [4] it was 53 µM (≈ 14.9 µg/mL).

As for `O=C(Nc1ccc(C(F)(F)F)cc1)c1ccc2cc(O)ccc2c1`, the “log K” value in data set [1] worked out at 1.0133. The values for the MIC90 in data set [2], in data set [3] and in data set [4] were 24 µM (≈ 7.95 µg/mL), 91 µM (≈ 30.1 µg/mL) and 91 µM (≈ 30.1 µg/mL), respectively. Further, the IC50 with THP-1 was greater than 30 µM.

Take `O=C(Nc1cccc([N+](=O)[O-])c1)c1ccc2cc(O)ccc2c1`: the “log K” value in data set [1] is 0.8533. Further, the MIC90 in data set [2] was 26 µM (≈ 8.02 µg/mL); in data set [3], 97 µM (≈ 29.9 µg/mL); in data set [4], 26 µM (≈ 8.02 µg/mL). Besides, the half-maximal inhibitory concentration (IC50) in the data set on THP-1 is greater than 30 µM.

As for `O=C(Nc1ccccc1Cl)c1ccc2cc(O)ccc2c1`, the “log K” value in data set [1] amounted to 0.6777. Moreover, the MIC90 in data set [2] worked out at 27 µM (≈ 8.04 µg/mL); in data set [3] it was 50 µM (≈ 14.9 µg/mL); in data set [4] it was 840 µM (≈ 250 µg/mL). For the same molecule, the half-maximal inhibitory concentration (IC50) in the data set on THP-1 is greater than 30 µM. Further, the Activity in data set [5] is listed as 38%.

As to `COc1cccc(NC(=O)c2ccc3cc(O)ccc3c2)c1`, the “log K” value in data set [1] is given as 0.4463. The MIC90 in data set [2] stood at 27 µM (≈ 7.92 µg/mL); in data set [3], 102 µM (≈ 29.9 µg/mL); in data set [4], 27 µM (≈ 7.92 µg/mL). Further, the IC50 with THP-1 is greater than 30 µM. For the same molecule, the Activity in data set [5] is 62.2%.

For the molecule `CO[C@H]1/C=C/O[C@@]2(C)Oc3c(C)c(O)c4c(O)c(c(/C=N/N5CCN(C)CC5)c(O)c4c3C2=O)NC(=O)/C(C)=C\C=C\[C@H](C)[C@H](O)[C@@H](C)[C@@H](O)[C@@H](C)[C@H](OC(C)=O)[C@@H]1C` [RIFAMPIN], the results for the MIC90 in data set [2], in data set [3] and in data set [4] were 10 µM (≈ 8.23 µg/mL), 10 µM (≈ 8.23 µg/mL) and 109 µM (≈ 89.7 µg/mL), respectively.

For the molecule `Cc1cccc(NC(=O)c2ccc3cc(O)ccc3c2)c1`, in data set [1], the “log K” value was found to be 0.6086. In addition, the MIC90 in data set [2] came to 29 µM (≈ 8.04 µg/mL); in data set [3], 54 µM (≈ 15 µg/mL); in data set [4] it was 29 µM (≈ 8.04 µg/mL). In the data set with THP-1, this molecule showed an IC50 greater than 30 µM.

As for `COc1ccc(NC(=O)c2ccc3cc(O)ccc3c2)cc1`, in data set [1], the “log K” value is listed as 0.3313. Also, the MIC90 in data set [2] is 27 µM (≈ 7.92 µg/mL); in data set [3], 852 µM (≈ 250 µg/mL); in data set [4] it was 27 µM (≈ 7.92 µg/mL). Moreover, the IC50 in the data set on THP-1 was greater than 30 µM. Moreover, the Activity in data set [5] came out at 69%.

Regarding `O=C(Nc1cccc(Br)c1)c1ccc2cc(O)ccc2c1`, in data set [1], the “log K” value was 0.8767. For the same molecule, the MIC90 in data set [2] amounted to 23 µM (≈ 7.87 µg/mL); in data set [3], 175 µM (≈ 59.9 µg/mL); in data set [4], 23 µM (≈ 7.87 µg/mL). Also, in the data set on THP-1, the IC50 is greater than 30 µM. Also, the Activity in data set [5] is 41.2%.

With `O=C(Nc1ccccc1Br)c1ccc2cc(O)ccc2c1`, the “log K” value in data set [1] is on record as 0.7486. Also, the MIC90 in data set [2] is 175 µM (≈ 59.9 µg/mL); in data set [3], 88 µM (≈ 30.1 µg/mL); in data set [4], 23 µM (≈ 7.87 µg/mL). The molecule further displayed a concentration for half-maximal inhibition (IC50) in the data set on THP-1 greater than 30 µM.

On to `Cc1ccc(NC(=O)c2ccc3cc(O)ccc3c2)cc1`, for which, in data set [1], the “log K” value was determined as 0.6227. The MIC90 in data set [2] was 29 µM (≈ 8.04 µg/mL); in data set [3] it was 451 µM (≈ 125 µg/mL); in data set [4], 29 µM (≈ 8.04 µg/mL). In addition, the IC50 with THP-1 is greater than 30 µM.

Consider `O=C(Nc1cccc(Cl)c1)c1ccc2cc(O)ccc2c1`, for which the “log K” value in data set [1] was determined as 0.7684. Further, the MIC90 in data set [2] was found to be 27 µM (≈ 8.04 µg/mL); in data set [3], 101 µM (≈ 30.1 µg/mL); in data set [4] it was 840 µM (≈ 250 µg/mL). The Activity in data set [5] is 46.5%.

`O=C(Nc1cccc(C(F)(F)F)c1)c1ccc2cc(O)ccc2c1`: the “log K” value in data set [1] was found to be 0.9558. For the same molecule, the MIC90 in data set [2] was found to be 24 µM (≈ 7.95 µg/mL); in data set [3], 91 µM (≈ 30.1 µg/mL); in data set [4], 24 µM (≈ 7.95 µg/mL). The molecule further gave a 50% inhibitory concentration (IC50) with THP-1 greater than 30 µM. Moreover, the Activity in data set [5] is given as 42.9%.

Consider `Cc1ccccc1NC(=O)c1ccc2cc(O)ccc2c1`, for which, in data set [1], the “log K” value was 0.369. Further, the MIC90 in data set [2], in data set [3] and in data set [4] was 29 µM (≈ 8.04 µg/mL) in each case. In addition, the IC50 in the data set on THP-1 is greater than 30 µM.

Consider `O=C(Nc1ccccc1[N+](=O)[O-])c1ccc2cc(O)ccc2c1`, for which the “log K” value in data set [1] is 0.8553. Also, the MIC90 in data set [2] came to 97 µM (≈ 29.9 µg/mL); in data set [3] it was 195 µM (≈ 60.1 µg/mL); in data set [4], 26 µM (≈ 8.02 µg/mL). The same molecule yielded a half-inhibitory concentration (IC50) in the data set on THP-1 greater than 30 µM.

Take `NNC(=O)c1ccncc1` [ISONIAZID]: the values for the MIC90 in data set [2], in data set [3] and in data set [4] were 58 µM (≈ 7.95 µg/mL), 3650 µM (≈ 500 µg/mL) and 1820 µM (≈ 250 µg/mL), respectively.

In the case of `O=C(Nc1ccc(Br)cc1)c1ccc2cc(O)ccc2c1`, the “log K” value in data set [1] was found to be 0.8884. Moreover, the MIC90 in data set [2] was 23 µM (≈ 7.87 µg/mL); in data set [3], 1460 µM (≈ 500 µg/mL); in data set [4], 731 µM (≈ 250 µg/mL).

On to `COc1ccccc1NC(=O)c1ccc2cc(O)ccc2c1`, for which, in data set [1], the “log K” value turned out to be 0.6039. The MIC90 in data set [2] was found to be 27 µM (≈ 7.92 µg/mL); in data set [3] it was 51 µM (≈ 15 µg/mL); in data set [4] it was 27 µM (≈ 7.92 µg/mL). The same molecule gave a concentration for half-maximal inhibition (IC50) in the data set with THP-1 greater than 30 µM.

`O=C(Nc1ccc(F)cc1)c1ccc2cc(O)ccc2c1`: the “log K” value in data set [1] amounted to 0.6726. Moreover, the values for the MIC90 in data set [2], in data set [3] and in data set [4] were 28 µM (≈ 7.88 µg/mL), 213 µM (≈ 59.9 µg/mL) and 53 µM (≈ 14.9 µg/mL), respectively.

In the case of `O=C(Nc1ccc(Cl)cc1)c1ccc2cc(O)ccc2c1`, in data set [1], the “log K” value is reported as 0.7947. Also, the MIC90 in data set [2] was found to be 27 µM (≈ 8.04 µg/mL); in data set [3], 202 µM (≈ 60.1 µg/mL); in data set [4], 50 µM (≈ 14.9 µg/mL). Also, in the data set with THP-1, the 50% inhibitory concentration (IC50) was greater than 30 µM. Moreover, the Activity in data set [5] is on record as 43.8%.

In the case of `O=C(Nc1ccccc1)c1ccc2cc(O)ccc2c1`, the “log K” value in data set [1] is 0.6612. Also, the MIC90 in data set [2] stood at 30 µM (≈ 7.9 µg/mL); in data set [3], 57 µM (≈ 15 µg/mL); in data set [4], 30 µM (≈ 7.9 µg/mL). The molecule further showed an IC50 in the data set with THP-1 greater than 30 µM.

As for `O=C(Nc1cccc(F)c1)c1ccc2cc(O)ccc2c1`, the “log K” value in data set [1] is 0.5766. In addition, the MIC90 is 28 µM (≈ 7.88 µg/mL) in data set [2], 53 µM (≈ 14.9 µg/mL) in data set [3] and 53 µM (≈ 14.9 µg/mL) in data set [4].
